Measured values reported in ChEMBL document CHEMBL5465560, “Selectivity Literature for EUbOPEN Chemogenomic Library” (2024).

Tests used:
[1] = molecular target: Serine/threonine-protein kinase tousled-like 2 (Homo sapiens) (UniProt Q86UE8); conditions: at 10 µM
[2] = molecular target: Tyrosine-protein kinase Lyn (Homo sapiens, UniProt P07948); experiment: Selectivity interaction (Millipore kinase profiler) EUB0000124b LYN; conditions: at 10 µM
[3] = molecular target: PAS domain-containing serine/threonine-protein kinase (Homo sapiens) (UniProt Q96RG2); experiment: Selectivity interaction (Kinase screening (Nanosyn)) EUB0000604a PASK
[4] = molecular target: Mitogen-activated protein kinase kinase kinase kinase 5 (Homo sapiens) (UniProt Q9Y4K4); experiment: Selectivity interaction (Kinase panel (Z-LYTE Assay)) EUB0001632a MAP4K5; conditions: at 10 µM
[5] = molecular target: Serine/threonine-protein kinase 35 (Homo sapiens) (UniProt Q8TDR2); experiment: Selectivity interaction (KinomeScan (DiscoverX)) EUB0000695a STK35; conditions: at 100 nM
[6] = molecular target: T1, Serine/threonine-protein kinase Nek1 (Homo sapiens) (UniProt Q96PY6); conditions: at 10 µM
T1 sequence (whole entry): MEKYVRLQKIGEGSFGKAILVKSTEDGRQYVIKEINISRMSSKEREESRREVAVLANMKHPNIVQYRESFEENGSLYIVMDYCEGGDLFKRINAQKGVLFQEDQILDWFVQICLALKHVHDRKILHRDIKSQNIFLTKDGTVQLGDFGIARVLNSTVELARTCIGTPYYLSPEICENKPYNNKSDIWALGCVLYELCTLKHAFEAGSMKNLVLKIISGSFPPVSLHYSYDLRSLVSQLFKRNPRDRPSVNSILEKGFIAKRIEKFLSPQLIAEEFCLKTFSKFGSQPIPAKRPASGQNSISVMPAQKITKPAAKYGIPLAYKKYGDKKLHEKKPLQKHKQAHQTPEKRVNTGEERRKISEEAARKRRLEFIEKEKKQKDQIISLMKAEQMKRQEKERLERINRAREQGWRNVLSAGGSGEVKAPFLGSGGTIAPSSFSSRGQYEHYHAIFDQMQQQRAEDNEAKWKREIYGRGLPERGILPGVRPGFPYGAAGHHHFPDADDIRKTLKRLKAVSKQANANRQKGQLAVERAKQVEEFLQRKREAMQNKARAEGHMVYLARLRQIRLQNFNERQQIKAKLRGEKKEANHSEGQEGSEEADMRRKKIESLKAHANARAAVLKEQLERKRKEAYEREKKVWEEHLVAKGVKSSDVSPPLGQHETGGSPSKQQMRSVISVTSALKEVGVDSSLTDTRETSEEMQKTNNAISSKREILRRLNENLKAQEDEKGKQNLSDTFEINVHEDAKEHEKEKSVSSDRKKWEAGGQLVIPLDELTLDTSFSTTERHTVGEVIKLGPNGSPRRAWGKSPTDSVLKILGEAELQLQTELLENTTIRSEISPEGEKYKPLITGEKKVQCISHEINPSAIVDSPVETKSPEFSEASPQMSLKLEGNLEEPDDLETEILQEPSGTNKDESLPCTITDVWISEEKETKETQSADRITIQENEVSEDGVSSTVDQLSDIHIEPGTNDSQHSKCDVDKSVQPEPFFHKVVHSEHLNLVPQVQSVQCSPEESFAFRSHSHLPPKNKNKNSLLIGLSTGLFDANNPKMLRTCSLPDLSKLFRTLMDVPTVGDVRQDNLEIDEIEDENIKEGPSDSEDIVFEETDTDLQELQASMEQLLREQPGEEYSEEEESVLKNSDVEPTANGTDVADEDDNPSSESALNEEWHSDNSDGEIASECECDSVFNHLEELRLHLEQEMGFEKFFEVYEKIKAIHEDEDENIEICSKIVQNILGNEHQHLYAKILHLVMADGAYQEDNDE

[7] = molecular target: Protein arginine N-methyltransferase 8 (Homo sapiens, UniProt Q9NR22); experiment: Selectivity interaction (Methyltransferase screen (radiometric assays, panel of 8 PRMTs, 21 protein lysine methyltransferases, 3 DNA methyltransferases, and one RNA methyltransferase)) EUB0000271b PRMT8
[8] = molecular target: T2, Uncharacterized serine/threonine-protein kinase SBK3 (Homo sapiens) (UniProt P0C264); experiment: Selectivity interaction (KinomeScan (DiscoverX)) EUB0000092b SBK3; conditions: at 10 µM
T2 sequence (whole entry): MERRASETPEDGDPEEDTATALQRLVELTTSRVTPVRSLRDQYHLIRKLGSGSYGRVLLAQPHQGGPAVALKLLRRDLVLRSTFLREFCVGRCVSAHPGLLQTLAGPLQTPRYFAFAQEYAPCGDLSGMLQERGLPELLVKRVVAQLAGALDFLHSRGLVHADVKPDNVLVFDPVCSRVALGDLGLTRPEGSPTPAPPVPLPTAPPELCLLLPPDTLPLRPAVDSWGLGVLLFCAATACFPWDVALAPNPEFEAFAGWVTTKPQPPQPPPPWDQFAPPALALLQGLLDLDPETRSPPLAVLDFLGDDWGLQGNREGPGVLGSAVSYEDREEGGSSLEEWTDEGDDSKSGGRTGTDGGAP

[9] = system: Tyrosine-protein kinase ABL1 (Homo sapiens), P00519 [H396P]; experiment: Selectivity interaction (KinomeScan (DiscoverX)) EUB0000655a ABL1; conditions: at 10 µM
[10] = molecular target: Serine/threonine-protein kinase PAK 4 (Homo sapiens, UniProt O96013); experiment: Selectivity interaction (KinomeScan (DiscoverX)) EUB0000618a PAK4; conditions: at 10 µM
Chain of Serine/threonine-protein kinase PAK 4 (O96013 whole entry, looked up): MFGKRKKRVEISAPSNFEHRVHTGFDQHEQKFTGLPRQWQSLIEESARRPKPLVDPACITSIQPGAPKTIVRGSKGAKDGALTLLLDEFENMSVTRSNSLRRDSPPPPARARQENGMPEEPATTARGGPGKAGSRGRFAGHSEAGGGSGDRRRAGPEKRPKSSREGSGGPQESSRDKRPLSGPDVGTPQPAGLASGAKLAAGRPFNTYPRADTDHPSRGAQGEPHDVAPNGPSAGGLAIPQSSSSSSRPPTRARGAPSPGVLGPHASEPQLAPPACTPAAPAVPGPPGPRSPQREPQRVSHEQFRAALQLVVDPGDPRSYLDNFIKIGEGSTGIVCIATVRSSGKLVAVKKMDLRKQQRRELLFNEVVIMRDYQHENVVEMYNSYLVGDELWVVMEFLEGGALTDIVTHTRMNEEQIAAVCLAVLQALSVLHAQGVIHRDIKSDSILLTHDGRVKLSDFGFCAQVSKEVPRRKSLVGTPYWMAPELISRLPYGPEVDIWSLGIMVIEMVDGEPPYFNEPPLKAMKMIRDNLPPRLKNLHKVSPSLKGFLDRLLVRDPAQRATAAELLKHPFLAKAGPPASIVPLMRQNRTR

Chain of Protein arginine N-methyltransferase 8 (Q9NR22 2-394 limits assumed): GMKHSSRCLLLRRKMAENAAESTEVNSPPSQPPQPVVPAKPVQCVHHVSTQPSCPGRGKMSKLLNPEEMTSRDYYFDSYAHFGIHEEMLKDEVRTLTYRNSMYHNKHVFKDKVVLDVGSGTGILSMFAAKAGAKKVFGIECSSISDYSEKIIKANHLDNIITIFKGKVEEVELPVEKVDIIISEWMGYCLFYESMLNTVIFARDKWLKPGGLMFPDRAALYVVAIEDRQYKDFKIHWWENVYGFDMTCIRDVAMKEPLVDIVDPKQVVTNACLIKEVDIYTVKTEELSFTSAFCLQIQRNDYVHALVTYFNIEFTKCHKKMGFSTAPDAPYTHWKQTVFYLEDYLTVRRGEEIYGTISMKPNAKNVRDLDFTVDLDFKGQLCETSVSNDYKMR
Chain of Mitogen-activated protein kinase kinase kinase kinase 5 (Homo sapiens) (Q9Y4K4 whole entry, looked up): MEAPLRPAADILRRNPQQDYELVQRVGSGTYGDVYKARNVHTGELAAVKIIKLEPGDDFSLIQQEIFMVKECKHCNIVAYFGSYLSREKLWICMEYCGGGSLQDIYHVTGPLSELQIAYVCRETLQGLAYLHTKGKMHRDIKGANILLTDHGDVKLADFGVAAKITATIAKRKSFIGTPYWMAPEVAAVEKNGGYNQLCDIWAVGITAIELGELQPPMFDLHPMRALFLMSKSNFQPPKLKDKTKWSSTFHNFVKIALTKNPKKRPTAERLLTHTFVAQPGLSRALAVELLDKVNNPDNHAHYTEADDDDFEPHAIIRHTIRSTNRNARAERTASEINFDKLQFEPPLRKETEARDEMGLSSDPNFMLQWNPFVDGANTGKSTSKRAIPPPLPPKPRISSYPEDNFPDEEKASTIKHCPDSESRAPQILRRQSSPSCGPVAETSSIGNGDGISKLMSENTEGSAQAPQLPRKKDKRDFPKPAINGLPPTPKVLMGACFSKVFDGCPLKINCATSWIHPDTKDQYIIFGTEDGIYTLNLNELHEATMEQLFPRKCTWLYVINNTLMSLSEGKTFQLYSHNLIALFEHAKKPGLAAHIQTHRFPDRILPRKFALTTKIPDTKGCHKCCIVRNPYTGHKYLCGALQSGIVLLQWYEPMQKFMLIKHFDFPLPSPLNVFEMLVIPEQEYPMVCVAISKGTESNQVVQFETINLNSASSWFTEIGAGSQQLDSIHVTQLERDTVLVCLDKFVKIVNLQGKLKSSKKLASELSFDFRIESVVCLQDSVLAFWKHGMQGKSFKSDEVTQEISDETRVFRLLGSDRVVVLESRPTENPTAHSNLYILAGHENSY
Chain of PAS domain-containing serine/threonine-protein kinase (Homo sapiens) (Q96RG2 whole entry, the tested form may be a part): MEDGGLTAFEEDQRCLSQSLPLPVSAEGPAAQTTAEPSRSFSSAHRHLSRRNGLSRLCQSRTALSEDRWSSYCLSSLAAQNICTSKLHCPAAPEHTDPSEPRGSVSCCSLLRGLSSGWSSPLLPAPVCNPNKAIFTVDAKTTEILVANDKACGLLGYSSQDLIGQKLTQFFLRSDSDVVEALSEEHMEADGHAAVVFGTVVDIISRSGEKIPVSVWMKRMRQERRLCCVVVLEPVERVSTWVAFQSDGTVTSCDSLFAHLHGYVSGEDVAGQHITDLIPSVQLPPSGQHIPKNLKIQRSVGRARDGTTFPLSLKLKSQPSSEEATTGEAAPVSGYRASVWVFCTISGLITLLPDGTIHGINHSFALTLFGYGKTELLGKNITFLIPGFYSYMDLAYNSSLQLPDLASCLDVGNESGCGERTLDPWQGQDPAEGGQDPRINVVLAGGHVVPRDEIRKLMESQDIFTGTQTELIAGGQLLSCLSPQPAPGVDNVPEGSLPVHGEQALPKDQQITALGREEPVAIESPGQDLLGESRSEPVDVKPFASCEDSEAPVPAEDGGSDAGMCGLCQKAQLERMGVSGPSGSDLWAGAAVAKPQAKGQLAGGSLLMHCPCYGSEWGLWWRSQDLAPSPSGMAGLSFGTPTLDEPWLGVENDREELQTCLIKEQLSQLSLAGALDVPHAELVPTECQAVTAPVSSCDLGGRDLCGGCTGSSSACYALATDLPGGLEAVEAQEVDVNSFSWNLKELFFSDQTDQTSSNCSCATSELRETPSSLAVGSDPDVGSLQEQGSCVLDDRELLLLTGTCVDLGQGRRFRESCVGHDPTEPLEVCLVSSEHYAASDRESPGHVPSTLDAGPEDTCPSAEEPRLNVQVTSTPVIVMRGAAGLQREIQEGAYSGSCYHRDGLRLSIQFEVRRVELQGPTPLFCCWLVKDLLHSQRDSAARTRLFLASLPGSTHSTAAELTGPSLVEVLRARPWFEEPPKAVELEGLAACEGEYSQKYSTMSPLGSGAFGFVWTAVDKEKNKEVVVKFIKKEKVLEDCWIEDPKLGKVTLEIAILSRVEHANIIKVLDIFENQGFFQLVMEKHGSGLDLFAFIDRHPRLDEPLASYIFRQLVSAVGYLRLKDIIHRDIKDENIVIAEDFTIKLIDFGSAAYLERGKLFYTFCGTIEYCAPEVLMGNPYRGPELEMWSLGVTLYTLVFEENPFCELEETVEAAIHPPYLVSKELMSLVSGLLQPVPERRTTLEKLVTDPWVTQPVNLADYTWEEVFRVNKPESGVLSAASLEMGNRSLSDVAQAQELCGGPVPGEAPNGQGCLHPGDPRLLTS
Chain of Serine/threonine-protein kinase 35 (Homo sapiens) (Q8TDR2 whole entry): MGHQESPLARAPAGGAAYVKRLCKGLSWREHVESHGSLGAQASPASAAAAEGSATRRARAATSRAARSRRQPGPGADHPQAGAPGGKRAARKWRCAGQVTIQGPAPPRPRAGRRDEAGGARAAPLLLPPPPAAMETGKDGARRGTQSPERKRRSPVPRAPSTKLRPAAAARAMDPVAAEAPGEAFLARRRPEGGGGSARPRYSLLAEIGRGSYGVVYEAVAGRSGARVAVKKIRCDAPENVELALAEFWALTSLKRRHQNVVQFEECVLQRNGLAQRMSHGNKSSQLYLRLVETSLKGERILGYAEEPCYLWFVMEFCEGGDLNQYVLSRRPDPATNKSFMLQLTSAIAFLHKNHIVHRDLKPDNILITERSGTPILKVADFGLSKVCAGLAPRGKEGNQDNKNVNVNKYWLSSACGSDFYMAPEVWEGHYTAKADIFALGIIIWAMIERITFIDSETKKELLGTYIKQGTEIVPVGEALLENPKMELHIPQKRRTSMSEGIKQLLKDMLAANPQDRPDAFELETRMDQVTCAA
Chain of Serine/threonine-protein kinase tousled-like 2 (Homo sapiens) (Q86UE8 whole entry, looked up): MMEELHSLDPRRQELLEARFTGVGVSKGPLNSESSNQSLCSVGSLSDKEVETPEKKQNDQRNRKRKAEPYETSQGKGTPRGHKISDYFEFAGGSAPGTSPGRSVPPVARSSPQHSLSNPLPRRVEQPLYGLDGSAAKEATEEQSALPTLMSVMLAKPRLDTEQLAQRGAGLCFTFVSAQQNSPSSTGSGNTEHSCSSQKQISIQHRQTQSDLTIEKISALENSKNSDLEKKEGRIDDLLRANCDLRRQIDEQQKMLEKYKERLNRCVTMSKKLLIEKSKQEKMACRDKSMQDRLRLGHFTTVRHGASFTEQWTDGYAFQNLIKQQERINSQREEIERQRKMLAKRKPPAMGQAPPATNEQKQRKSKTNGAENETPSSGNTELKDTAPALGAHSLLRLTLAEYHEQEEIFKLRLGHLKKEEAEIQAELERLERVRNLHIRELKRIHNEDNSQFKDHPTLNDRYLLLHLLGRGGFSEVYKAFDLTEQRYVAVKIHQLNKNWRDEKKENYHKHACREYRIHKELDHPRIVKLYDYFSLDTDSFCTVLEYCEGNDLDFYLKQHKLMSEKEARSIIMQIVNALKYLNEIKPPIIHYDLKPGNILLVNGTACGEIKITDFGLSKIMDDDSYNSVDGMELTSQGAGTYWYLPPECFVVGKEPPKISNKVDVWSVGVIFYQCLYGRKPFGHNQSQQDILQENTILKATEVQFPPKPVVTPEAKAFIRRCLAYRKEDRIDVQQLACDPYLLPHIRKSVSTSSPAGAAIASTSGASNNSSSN
Chain of Tyrosine-protein kinase Lyn (P07948 2-512 limits assumed): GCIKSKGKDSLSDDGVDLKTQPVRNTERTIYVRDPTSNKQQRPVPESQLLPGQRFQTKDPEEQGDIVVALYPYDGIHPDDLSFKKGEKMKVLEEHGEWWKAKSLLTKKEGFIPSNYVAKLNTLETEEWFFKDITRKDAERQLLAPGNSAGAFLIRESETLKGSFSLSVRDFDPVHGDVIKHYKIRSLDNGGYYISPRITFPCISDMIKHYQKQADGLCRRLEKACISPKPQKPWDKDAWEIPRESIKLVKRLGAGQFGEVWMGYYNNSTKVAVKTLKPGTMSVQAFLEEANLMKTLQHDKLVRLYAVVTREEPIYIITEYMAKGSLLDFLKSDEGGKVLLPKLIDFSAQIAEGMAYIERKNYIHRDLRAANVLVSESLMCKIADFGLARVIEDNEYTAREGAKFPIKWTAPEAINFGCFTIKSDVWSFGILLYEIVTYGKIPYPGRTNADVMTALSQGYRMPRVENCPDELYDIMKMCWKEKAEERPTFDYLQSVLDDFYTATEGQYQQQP

Cc1cc([C@@H](C)Nc2ccccc2C(=O)O)c2nc(N3CCOCC3)cc(=O)n2c1 [AZD-6482]
% of control [1]: 88%

CC(=O)Nc1cccc(-n2c(=O)n(C3CC3)c(=O)c3c(Nc4ccc(I)cc4F)n(C)c(=O)c(C)c32)c1
% of control [2]: 95%

Cc1cnc(Nc2ccc(F)cc2Cl)nc1-c1c[nH]c(C(=O)N[C@H](CO)c2cccc(Cl)c2)c1
% of inhibition [3]: 19%

Cn1cc(-n2cnc3c(NCc4nc5cc(Cl)c(Cl)cc5[nH]4)nc(N4CCOCC4)nc32)cn1
% of control [4]: 3.28%

Cc1cc(F)c(C(=O)Nc2cccc(-c3nncn3C(C)C)n2)cc1-n1cnc(C2CC2)c1
% of control [5]: 100%

CCN(CC)CCCCNc1ncc2cc(-c3cc(OC)cc(OC)c3)c(NC(=O)NC(C)(C)C)nc2n1
% of control [6]: 100%

Cc1cc(C)cc([C@@H]2c3cc(C)ccc3NC(=O)CN2C(=O)c2ccc(Br)s2)c1
% of activity ([7]; at 1 µM): 101%
% of activity ([7]; at 10 µM): 96%

CCC(=O)N1CCN(c2ccc(-n3c(=O)ccc4cnc5ccc(-c6cnc7ccccc7c6)cc5c43)cc2C(F)(F)F)CC1
% of control [8]: 94%

CN(C)CCOc1ccc(-c2nc(-c3ccncc3)c(-c3ccc4c(c3)CC/C4=N\O)[nH]2)cc1
% of control [9]: 6.9%

O[C@H]1CC[C@H](Nc2ncc3nc(Nc4c(F)cc(F)cc4F)n([C@H]4CCOC4)c3n2)CC1
% of control [10]: 100%
